Test results taken from publication PMC11555231 (Nature Communications, 2024).
Bridge positions count the residues as written; N and C are the ends. Peptide text beside a SMILES is read from it.

Key:
[1] = system: cellular PADI4 in hPADI4-stable mES cell extracts; assay: Cell lysate activity assay, H3Cit2 immunoblot, with or without pre-incubation before calcium; format: biochemical, mouse; details: inhibitor added 20 mins prior (pre-incubation) or concurrent with calcium
Source text: Neutrophil samples were boiled in a sodium dodecyl sulphate (SDS) buffer containing dithiothreitol (DTT) and run on a polyacrylamide gel electrophoresis (SDS-PAGE) using Criterion TGX precast gels (Any-KD; Bio-Rad Laboratories). Proteins were then transferred to a PVDF membrane (Bio-Rad Laboratories) via semi-dry transfer. The membrane was blocked with 5% BSA (Fisher Scientific) in Tris-buffered saline with 0.1% Tween-20 (TBS-T). Levels of citrullinated histone H3, total H3 and myeloperoxidase (MPO) were assessed by incubating membranes in either anti-histone H3 citrulline R2 + R8 + R17 (Abcam; ab5103 1:1000), anti-histone H3 (Millipore; 07-690 1:10000) or anti-MPO (DAKO; A0398 1:2500) overnight at 4 °C, respectively. For cell lysate-based assays and pull-down assays, membranes were incubated as above with anti-hPADI4 (Abcam; ab50332; 1:1000 in 5% BSA/TBS-T), anti-Bcr (Cell Signalling #3902S; 1:1000 in 3% milk/TBS-T) and anti-Impdh2 (Cell Signalling #57068S; 1:1000 in 3% milk/TBS-T). Membranes were washed in 0.1% TBS-T and subsequently incubated with goat anti-rabbit HRP or anti-goat (Fisher Scientific) for 1 h, followed by final washes in 0.1% TBS-T. Membranes were imaged with enhanced chemiluminescent substrate (ECL) (Thermo Fisher) on a Bio-Rad imager.
Supplementary Figure 2. PADI4_3 is a potent and selective hPADI4 inhibitor. A. […]

HaLo-GFP-mito HeLa cells = assay: Chloroalkane penetration assay (CAPA); format: in vitro ADME; details: CAPA, chloroalkane-tagged peptide, 4 h in Opti-MEM, 37 °C, chase HaLo-Tag TMR ligand 5 µM 15 min, flow cytometry; mean ± SEM of three independent experiments
Procedure: Following the addition of chloroacetyl-NHS to the N-terminal amino group, Cys(mmt) was selectively deprotected using 1% TFA, 5% triisopropylsilane in DCM (30 min, RT). Peptides were then cyclised on resin using 2% diisopropylethylamine in DMF overnight. Following cyclisation, Lys(ivDde) was deprotected using 2% hydrazine in DMF. The resin was then washed (3 x DCM, 3 x DMF) before on-resin coupling of chloroalkane carboxylic acid was performed on the lysine side chain using Hexafluorophosphate Azabenzotriazole Tetramethyl Uronium / diisopropylethylamine in DMF for 2 h. Global deprotection and purification were then carried out as described above. Chloroalkane carboxylate was synthesised as previously described.
CAPA assays were performed following the protocol published in ref. [51]. In brief, 40,000 HaLo- GFP-mito HeLa cells were seeded in a 96-well plate. Twenty-four hours later, cells were treated with different concentrations of chloroalkane-tagged peptides (100 µM to 200 nM for PADI4_3 and PADI4_3i and 50 µM to 100 nM for PADI4_11 and PADI4_11i) for 4 h in Opti-MEM. Media containing peptides was then removed, and cells were incubated with Opti-MEM (Gibco) for 15 min. After that time, the wash was removed, and cells were chased with HaLo-Tag TMR ligand (5 µM, Promega) in Opti-MEM for 15 min. The ligand was then removed, and cells were incubated with Opti-MEM for 30 min. Cells were then trypsinised, resuspended in phosphate-buffered saline (PBS) with 0.5% FBS and analysed using a benchtop flow cytometer (MACSQuant® VYB Flow cytometer Milteny Biotec). For each well, 10000 GFP positive single cells were analysed (gating workflow shown in Supplementary Fig. 18), and TMR mean fluorescence was normalised against a positive control (cells treated with HaLo-Tag TMR ligand but no peptide) and a negative control (non-treated cells). Analysis was performed using FlowJo (LCC) software and Prism GraphPad (Dotmatics). Data were presented as the average ± standard error of three independent replicates.

hPADI4-stable mES cells = assay: High content microscopy of citrullinated histone H3 (H3Cit) in hPADI4-stable mES cells; format: cell-based, mouse; details: mean H3Cit intensity, peptide 1 h, without any other activating stimulus
Procedure: HaLo-GFP-mito HeLa cells were grown in DMEM (Gibco) supplemented with 10% foetal bovine serum (FBS), penicillin/streptomycin (100 µg/ml) and puromycin (1 µg/ml) at 37 °C, 5% CO2. HaLo-GFP-mito HeLa cell line[82] was profiled by short tandem repeat analysis (STR) and tested negative for mycoplasma by the Cell Services Technology Platform at the Francis Crick Institute. E14 –mouse embryonic stem cells (Cambridge Stem Cell Institute, UK) were cultured in plates coated with 1% gelatine in GMEM supplemented with 10% foetal calf serum (FCS) batch-tested for ES cell culture (Gibco), 0.1 mM non-essential amino acids, 2 mM L-glutamine, 1 mM sodium pyruvate, 0.1 mM β-mercaptoethanol and 50 ng/mL leukaemia inhibitory factor (LIF) (ESGRO, Millipore). For PADI4 activation, cells were cultured in GMEM containing 10% knockout serum replacement (KSR, Life Technologies), 1% FCS batch-tested for ES cell culture (Gibco), 0.1 mM non-essential amino acids, L-glutamine, 1 mM sodium pyruvate, 0.1 mM β-mercaptoethanol, 50 ng/mL LIF (ESGRO, Millipore), 1 μM PD0325901 (AxonMedChem) and 3 μM CHIR99021 (AxonMedChem). For the generation of E14 mES stably expressing human PADI4 (hPADI4-stable), human PADI4 cDNA was inserted into ES E14 cells using the piggyBac transposon system. The Gateway system was used to clone human PADI4 into the piggyBac vector using primers PADI4_AttB1_F and PADI4_AttB2_R (Table S4). pPB-CAG-CTRL (empty vector) or pPB-CAG-hPADI4 vectors […] were transfected with the piggyBac transposase (pPBase) expression vector, pCAGPBase […], by lipofection according to the manufacturer’s instructions (Lipofectamine 2000, Invitrogen). E14 cells constitutively expressing the hygromycin resistance gene and human PADI4 were selected and expanded in media containing […] hygromycin.
E14 cells were seeded onto 96-well PerkinElmer cell carrier ultra plates (Phenoplates) coated with 0.1% gelatine, at 25,000 cells per well and grown overnight at 37 °C, 5% CO2. Outer wells were excluded but medium was added to minimise any edge effects. […]

[2] = system: calcium influx into cells; assay: Calcium imaging with Calbryte 520 AM; format: cell-based; details: Calbryte intensity, 25 µM peptide, 60 min
Procedure: Calbryte™ 520 AM dye (https://www.aatbio.com/products/calbryte-520-am) was used for quantification of calcium influx into cells. Cells were seeded onto 10 mm optical imaging plates at 10^5 cells per dish and allowed to attach overnight. Cells were stained with 10 μM Calbryte dye in normal growth medium for 1 h, 37 °C, 5% CO2, washed once with cell culture medium and imaged using a Nikon Wide-field microscope. A time series was performed, with a 488 laser image taken every second. After 1 min of imaging (baseline readings), PADI4_11 (25 μM), PADI4_11i (25 μM) or calcium ionophore (10 μM, as positive control) were added, and cells were imaged for a further 60 min. Analysis was done using imageJ —region of interest (ROI) were taken for each cell at each time point using ROI manager. Background values (ROI with no cells) were taken at each time point and removed from the same background reading (i.e. ROI at 1 second with cells minus ROI at 1 s background value). An average of at least ten cells was taken for each condition and each average data point was divided by the initial average data point for that cell, to obtain overall response.

COc1cc(C(=O)N2CC[C@@H](O)[C@@H](N)C2)cc2nc(-c3cc4ccccc4n3CC3CC3)n(C)c12 [GSK484]
inhibition of histone 3 citrullination (H3Cit) in cell lysates containing active cellular PADI4 [1]: required pre-incubation to be active

CC(C)C[C@H](NC(=O)[C@H](CCC(N)=O)NC(=O)[C@H](CC(C)C)NC(=O)[C@@H](NC(=O)[C@H](CCC(N)=O)NC(=O)[C@H](CCCNC(=N)N)NC(=O)[C@H](Cc1ccc(O)cc1)NC(=O)[C@H](CCCNC(=N)N)NC(=O)[C@@H]1CSCC(=O)N[C@@H](Cc2ccc(O)cc2)C(=O)N[C@@H](CO)C(=O)N[C@@H](CCC(=O)O)C(=O)N1)C(C)C)C(N)=O [PADI4_11i] ({CH2CO}-YSECRYRQVLQL-NH2; thioether N-4)
CP50 (HaLo-GFP-mito HeLa cells): 2.0 ± 0.5 µM
PADI4 activation in cells (in words) (hPADI4-stable mES cells): does not have the same effect
intracellular calcium levels (calcium influx) [2]: neither PADI4_11, nor PADI4_11i, were responsible for increased intracellular calcium levels
